Columns and labels:
[1] = molecular target: T1, human full-length glucocorticoid receptor (Homo sapiens, UniProt P04150); assay: Glucocorticoid Receptor Binding Assay (II), fluorescence polarization competitor kit (Fluormone GS1); details: cell lysate with recombinant human full-length GR
T1 construct: recombinantly expressed human full-length glucocorticoid receptor; purchased PanVera Co., Madison, Wis; P2816
T1 sequence (P04150 1-777): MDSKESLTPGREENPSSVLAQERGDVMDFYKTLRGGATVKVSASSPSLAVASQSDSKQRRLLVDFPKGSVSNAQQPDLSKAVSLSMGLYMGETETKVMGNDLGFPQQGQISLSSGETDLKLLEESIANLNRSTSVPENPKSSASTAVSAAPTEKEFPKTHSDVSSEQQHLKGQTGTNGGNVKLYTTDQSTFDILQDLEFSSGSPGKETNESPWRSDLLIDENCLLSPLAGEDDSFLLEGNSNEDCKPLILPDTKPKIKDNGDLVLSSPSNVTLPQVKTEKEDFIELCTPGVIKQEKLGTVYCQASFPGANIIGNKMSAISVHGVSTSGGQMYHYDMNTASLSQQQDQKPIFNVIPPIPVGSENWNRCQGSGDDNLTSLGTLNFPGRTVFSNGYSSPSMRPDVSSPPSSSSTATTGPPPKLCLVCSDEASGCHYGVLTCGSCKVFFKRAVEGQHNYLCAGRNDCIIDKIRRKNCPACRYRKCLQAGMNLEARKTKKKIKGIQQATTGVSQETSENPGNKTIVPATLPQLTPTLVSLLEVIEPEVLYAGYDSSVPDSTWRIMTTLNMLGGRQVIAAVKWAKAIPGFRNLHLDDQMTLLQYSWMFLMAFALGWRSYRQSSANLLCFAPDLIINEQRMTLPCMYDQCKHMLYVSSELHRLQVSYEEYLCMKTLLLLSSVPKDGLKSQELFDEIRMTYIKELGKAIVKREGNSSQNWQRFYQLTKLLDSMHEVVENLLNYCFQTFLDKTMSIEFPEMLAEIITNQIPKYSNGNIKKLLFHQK
Protocol: In order to measure the binding of compounds on the glucocorticoid receptor a commercially available kit was used (Glucocorticoid receptor competitor assay kit, PanVera Co., Madison, Wis., P2816). Briefly, a cell lysate containing recombinantly expressed human full-length glucocorticoid receptor was mixed with a fluorescently labeled glucocorticoid (1 nM Fluormone GS1) in the presence or absence of test compound. After one hour at room temperature, the fluorescence polarization (FP) of the samples were measured. […] Test molecules were analyzed in the concentration range from 2.4 nM to 40 microMolar.

[2] = test system: AP-1 induced transcriptional activity; assay: Cellular Transrepressional Assay (AP-1 luciferase reporter in A549 cells, PMA-activated); assay type: cell-based; details: Homo sapiens, A549, 7 h, pAP-1-Luc, 10 ng/ml PMA, read-out: AP-1 (EC50, nM) (Cellular Transrepression Assay)
How it was run: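 A549 cells stably carrying a 7×AP-1-luciferase reporter, stimulated with 10 ng/ml PMA with or without compound (0.1 nM-40 μM) for 7 h. Luciferase luminescence read 10 min after reagent addition; repression is percentage decrease of PMA-alone signal, EC50 by curve fitting.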

SMILES | Ki [1] [nM] | EC50 [2] [nM]
O=C(CC(F)(F)F)NCCC(c1ccccc1)c1ccc2c(cnn2-c2ccc(F)cc2)c1 (centres unmarked) [Example 111, 3,3,3-Trifluoro-N-(3-(1-(4-fluorophenyl)-1H-indazol-5-yl)-3-phenylpropyl)propanamide] | 12 | 240
CC(C)(C(=O)c1ccccc1)C(c1ccccc1)c1ccc2c(cnn2-c2ccc(F)cc2)c1 (centres unmarked) [Example 125] | 14 | > 10000
CC(C)(C(c1ccccc1)c1ccc2c(cnn2-c2ccc(F)cc2)c1)C(O)(c1ccccc1)C(F)(F)F (centres unmarked) [Example 129, 1,1,1-Trifluoro-4-(1-(4-fluorophenyl)-1H-indazol-5-yl)-3,3-dimethyl-2,4-diphenylbutan-2-ol] | 26 | 202
CC(C)S(=O)(=O)NCC(C)(C)[C@@H](c1ccccc1)c1ccc2c(cnn2-c2ccc(F)cc2)c1 [Example 7, (S)-N-(3-(1-(4-fluorophenyl)-1H-indazol-5-yl)-2,2-dimethyl-3-phenylpropyl)propane-2-sulfonamide] | 6.1 | 139
CC(C)(CNC(=O)Cc1cccs1)[C@H](c1ccccc1)c1ccc2c(cnn2-c2ccc(F)cc2)c1 [Example 21, (R)-N-(3-(1-(4-fluorophenyl)-1H-indazol-5-yl)-2,2-dimethyl-3-phenylpropyl)-2-(thiophen-2-yl)acetamide] | 39 | 266
CC(C)(CNS(C)(=O)=O)[C@@H](c1ccccc1)c1ccc2c(cnn2-c2ccc(F)cc2)c1 [Example 6, (S)-N-(3-(1-(4-fluorophenyl)-1H-indazol-5-yl)-2,2-dimethyl-3-phenylpropyl)methanesulfonamide] | 4.9 | 47
CC(C)(CNC(=O)CC(F)(F)F)[C@H](c1ccccc1)c1ccc2c(cnn2-c2ccc(F)cc2)c1 [(R)-17, (R)-3,3,3-trifluoro-N-(3-(1-(4-fluorophenyl)-1H-indazol-5-yl)-2,2-dimethyl-3-phenylpropyl)-propanamide] | 12 | 99
Cn1ncc2cc([C@H](c3ccccc3)C(C)(C)CNC(=O)CC(F)(F)F)ccc21 [Example 84, (S)—N-(2,2-Dimethyl-3-(1-methyl-1H-indazol-5-yl)-3-phenylpropyl)-3,3,3-trifluoropropanamide] | 115 | > 10000
CC(C)(CNC(=O)CC(F)(F)F)[C@@H](c1ccccc1)c1ccc2[nH]ncc2c1 [(S)-82, (S)-N-(3-(1H-indazol-5-yl)-2,2-dimethyl-3-phenylpropyl)-3,3,3-trifluoropropanamide] | 39 | > 10000
CC(=O)C(C)(C)C(c1ccccc1)c1ccc2c(cnn2-c2ccc(F)cc2)c1 (centres unmarked) [Example 120, 4-(1-(4-Fluorophenyl)-1H-indazol-5-yl)-3,3-dimethyl-4-phenylbutan-2-one] | 21 | > 10000
O=S(=O)(CC(F)(F)F)NCCC(c1ccccc1)c1ccc2c(cnn2-c2ccc(F)cc2)c1 (centres unmarked) [Example 110, 2,2,2-Trifluoro-N-(3-(1-(4-fluorophenyl)-1H-indazol-5-yl)-3-phenylpropyl)ethanesulfonamide] | 21 | > 10000
CC(C)(CNc1nncs1)C(c1ccccc1)c1ccc2c(cnn2-c2ccc(F)cc2)c1 (centres unmarked) [Example 109, N-(3-(1-(4-Fluorophenyl)-1H-indazol-5-yl)-2,2-dimethyl-3-phenylpropyl)-1,3,4-thiadiazol-2-amine] | 9.2 | 43

The remaining compounds from weak to strong by Ki [1], led by results:

Ki [1] [nM] | EC50 [2] [nM] | SMILES
628 | > 10000 | CC(C)(CNC(=O)CC(F)(F)F)[C@H](c1ccccc1)c1ccc2[nH]ncc2c1 [(R)-82, (R)-N-(3-(1H-indazol-5-yl)-2,2-dimethyl-3-phenylpropyl)-3,3,3-trifluoropropanamide]
547 | > 10000 | CC(C)(CNS(=O)(=O)CC(F)(F)F)C(c1ccccc1)c1ccc2[nH]ncc2c1 (stereo in doubt) [(R)-83, (S)-N-(3-(1H-indazol-5-yl)-2,2-dimethyl-3-phenylpropyl)-2,2,2-trifluoroethanesulfonamide]
351 | > 10000 | CC(C)(CNC(=O)C(=O)O)[C@H](c1ccccc1)c1ccc2c(cnn2-c2ccc(F)cc2)c1 [Example 24, (R)-2-(3-(1-(4-fluorophenyl)-1H-indazol-5-yl)-2,2-dimethyl-3-phenylpropylamino)-2-oxoacetic acid]
252 | > 10000 | CC(C)(C(c1ccccc1)c1ccc2c(cnn2-c2ccc(F)cc2)c1)C(O)(c1cccs1)C(F)(F)F (centres unmarked) [Example 130, 1,1,1-Trifluoro-4-(1-(4-fluorophenyl)-1H-indazol-5-yl)-3,3-dimethyl-4-phenyl-2-(thiophen-2-yl)butan-2-ol]
75 | > 10000 | CC(C)(C(O)Cc1ccccc1)C(c1ccccc1)c1ccc2c(cnn2-c2ccc(F)cc2)c1 (centres unmarked) [Example 124, 4-(1-(4-fluorophenyl)-1H-indazol-5-yl)-3,3-dimethyl-1,4-diphenylbutan-2-ol]
71 | > 10000 | CC(C)(C(O)c1cccs1)C(c1ccccc1)c1ccc2c(cnn2-c2ccc(F)cc2)c1 (centres unmarked) [Example 123, 3-(1-(4-fluorophenyl)-1H-indazol-5-yl)-2,2-dimethyl-3-phenyl-1-(thiophen-2-yl)propan-1-ol]
69 | 3850 | CC(C)(C(O)c1ccccc1)C(c1ccccc1)c1ccc2c(cnn2-c2ccc(F)cc2)c1 (centres unmarked) [Example 121, 3-(1-(4-fluorophenyl)-1H-indazol-5-yl)-2,2-dimethyl-1,3-diphenylprop an-1-ol]
34 | > 10000 | CC(C)(CNS(=O)(=O)CC(F)(F)F)[C@@H](c1ccccc1)c1ccc2[nH]ncc2c1 [(S)-83, (S)-N-(3-(1H-indazol-5-yl)-2,2-dimethyl-3-phenylpropyl)-2,2,2-trifluoroethanesulfonamide]
33 | > 10000 | CC(C)(CNC(=O)C(F)(F)F)C(c1ccccc1)c1ccc2c(cnn2C2CCCCCC2)c1 (centres unmarked) [Example 114, N-(3-(1-Cycloheptyl-1H-indazol-5-yl)-2,2-dimethyl-3-phenylpropyl)-2,2,2-trifluoroacetamide]
19 | 181 | CCCS(=O)(=O)NCC(C)(C)[C@@H](c1ccccc1)c1ccc2c(cnn2-c2ccc(F)cc2)c1 [Example 13, (S)-N-(3-(1-(4-fluorophenyl)-1H-indazol-5-yl)-2,2-dimethyl-3-phenylpropyl)propane-1-sulfonamide]
19 | 143 | CC(C)(CNC(=O)C1(C(F)(F)F)CC1)[C@@H](c1ccccc1)c1ccc2c(cnn2-c2ccc(F)cc2)c1 [Example 10, (S)-N-(3-(1-(4-fluorophenyl)-1H-indazol-5-yl)-2,2-dimethyl-3-phenylpropyl)-1-(trifluoromethyl)cyclopropanecarboxamide]
17 | 679 | CC(=O)NCC(C)(C)[C@H](c1ccccc1)c1ccc2c(cnn2-c2ccc(F)cc2)c1 [Example 22, (R)-N-(3-(1-(4-fluorophenyl)-1H-indazol-5-yl)-2,2-dimethyl-3-phenylpropyl)acetamide]
12 | > 10000 | CC(C)(C(=O)C1CC1)C(c1ccccc1)c1ccc2c(cnn2-c2ccc(F)cc2)c1 (centres unmarked) [Example 126]
8.3 | 1280 | CC(C)(C)CC(=O)NCC(C)(C)[C@@H](c1ccccc1)c1ccc2c(cnn2-c2ccc(F)cc2)c1 [Example 1, (S)-N-(3-(1-(4-fluorophenyl)-1H-indazol-5-yl)-2,2-dimethyl-3-phenylpropyl)-3,3-dimethylbutanamide]
8.2 | > 10000 | CC(C)CC(c1ccc2c(cnn2-c2ccc(F)cc2)c1)C(C)(C)CNC(=O)C(F)(F)F (centres unmarked) [Example 25, 2,2,2-trifluoro-N-(3-(1-(4-fluorophenyl)-1H-indazol-5-yl)-2,2,5-trimethylhexyl)acetamide]
6.9 | 57 | CC(C)CC(c1ccc2c(cnn2-c2ccc(F)cc2)c1)C(C)(C)CNC(=O)CC(F)(F)F (centres unmarked) [Example 59A, 3,3,3-trifluoro-N-(3-(1-(4-fluorophenyl)-1H-indazol-5-yl)-2,2,5-trimethylhexyl)propanamide]
